Read-outs that look alike come from different tables or passages of the source.
Legend:
corl279 = test: In vitro ADC activity with combination partners (Venetoclax, Topotecan), CellTiter-Glo 5 days, corl279 (Example 13); assay type: cell-based; conditions: single agent
Description: (§1) Antibody drug conjugates (ADCs) targeting IgG, B7H3, CD56, DLK1, DLL3, EpCAM, and SEZ6 were tested against cancer cell lines obtained from ATCC (American Type Culture Collection) or from other commercial cell line vendors (cor1279, ncih1436, ncih146, ncih211, ncih524). The cells were cultured in media that is optimal for their growth at 5% CO2, 37° C. in a tissue culture incubator. Prior to seeding for the proliferation assay, the cells were split at least 2 days before the assay to ensure optimal growth density. On the day of seeding, cells were lifted off tissue culture flasks using 0.25% trypsin. Cell viability and cell density were determined using a cell counter (Vi-Cell XR Cell Viability Analyzer, Beckman Coulter). Cells with higher than 85% viability were seeded in white clear bottom 384-well plates (Greiner cat #781098) at a density of 1000 cells per well in 50 μL of standard growth media. Plates were incubated at 37° C. overnight in a tissue culture incubator.
(§2) The ADCs were prepared in standard phosphate buffered solution to desired concentrations. A series of 10 dilutions were made for each ADC. The prepared drug treatments were then added to the cells resulting in final concentrations of 300 nM to 0.015 nM. Combination partners (Venetoclax and Topotecan) were added at fixed concentrations. Acoustic transfer devices (Echo525, Echo550, Beckman Coulter) were used to add the ADCs or combination partners to the cells. Each treatment was tested in triplicate assay plates. Plates were incubated at 37° C. overnight or for 5 days in a tissue culture incubator. The ability of the ADCs to inhibit cell proliferation and survival was assessed using the Promega CellTiter-Glo® proliferation assay. Plates were incubated at room temperature for 20 minutes to stabilize luminescent signals prior to reading using a multimode plate reader (Pherastar, BMG). Luminescent counts of untreated cells were taken the day after seeding (Day 0 readings), and after 5 days of treatment (Day 5 readings). The Day 5 readings of the untreated cells were compared to the Day 0 readings. Assays with at least one cell doubling during the incubation period were considered valid. To evaluate the effect of the drug treatments, luminescent counts from wells containing untreated cells (100% viability) were used to normalize treated samples. The concentrations of treatment required to inhibit 50% of cell growth or survival ([…]) were calculated using a four parameter logistic regression equation.

ncih1436 = test: In vitro ADC activity with combination partners, CellTiter-Glo 5 days, ncih1436 (Example 13); assay type: cell-based; conditions: single agent
Description: as §1, §2

ncih146 = test: In vitro ADC activity with combination partners, CellTiter-Glo 5 days, ncih146 (Example 13); assay type: cell-based; conditions: single agent
Description: as §1, §2

ncih211 = test: In vitro ADC activity with combination partners, CellTiter-Glo 5 days, ncih211 (Example 13); assay type: cell-based; conditions: single agent
Description: as §1, §2

ncih524 = test: In vitro ADC activity with combination partners, CellTiter-Glo 5 days, ncih524 (Example 13); assay type: cell-based; conditions: single agent
Description: as §1, §2

H1650 cells = test: CellTiterGlo (CTG) cell viability, 3D, 120 h, H1650 (Example 8); assay type: cell-based, human; conditions: Homo sapiens, NCI-H1650, H1650 3D
HPB-ALL (T-ALL) = test: CellTiter-Glo viability 72 h, single agent or 1/1 combination with vincristine, ABT-199 or Compound A2, HPB-ALL (Example 9); assay type: cell-based; conditions: Homo sapiens, HPBALL, single agent or 1/1 combination as labelled
Description: (§3) Cell lines were cultured in the media described above at 37° C. in a humidified atmosphere containing 5% CO2. Cells were seeded in 96 well clear bottom plates (96 well clear-bottom, white, Corning reference 3903) and exposed to the payloads or ADCs at single agents or in 1/1 combinations with vincristine, ABT-199 or compound A2 for 72 h (serially diluted; 9 concentrations each, triplicates). Effects of payloads or ADCs on cell viability were assessed after 3 days of incubation at 37° C./5% CO2 by quantification of cellular ATP levels using CellTiter-Glo reagent (Promega Ref: G7571) at 75 μL reagent/well. All the conditions were tested in triplicates. Luminescence was quantified on a multipurpose plate reader. IC50s were calculated using standard four-parametric curve fitting. […] Each experiment was performed at least twice, with results being reproducible.

ALL-SILL (T-ALL) = test: CellTiter-Glo viability 72 h, single agent or 1/1 combination, ALL-SIL (Example 9); assay type: cell-based; conditions: single agent or 1/1 combination as labelled
Description: Cell lines were cultured in the media described above at 37° C. in a humidified atmosphere containing 5% CO2. […] Effects of payloads or ADCs on cell viability were assessed after 3 days of incubation at 37° C./5% CO2 by quantification of cellular ATP levels using CellTiter-Glo reagent (Promega Ref: G7571) at 75 μL reagent/well. All the conditions were tested in triplicates. Luminescence was quantified on a multipurpose plate reader. IC50s were calculated using standard four-parametric curve fitting.

LOUCY (T-ALL) = test: CellTiter-Glo viability 72 h, single agent or 1/1 combination, LOUCY (Example 9); assay type: cell-based; conditions: single agent or 1/1 combination as labelled
Description: as §3

SUDHL8 (DLBCL) = test: CellTiter-Glo viability 72 h, single agent or 1/1 combination, SUDHL8 (Example 9); assay type: cell-based; conditions: Homo sapiens, SU-DHL-8, single agent or 1/1 combination as labelled
Description: as §3

MM1S (MM) = test: CellTiter-Glo viability 72 h, single agent or 1/1 combination, MM1S (Example 9); assay type: cell-based; conditions: Homo sapiens, MM1.S, single agent or 1/1 combination as labelled
Description: as §3

[1] = test system: H1650 human non-small cell lung carcinoma (NSCLC) model; test: In vivo efficacy of EGFR2-Bcl-xL inhibitor ADC in combination with docetaxel, H1650 xenografts (Example 15); set-up: species or system female SCID mice; conditions: Vehicle iv + docetaxel 7.5 mg/kg qdx1 iv 24 h later
Description: H1650 cells were cultured at 37° C. in an atmosphere of 5% CO2 in air in RPMI1640 (BioConcept Ltd. Amimed, #1-41F01-1) supplemented with 10% FCS (BioConcept Ltd. Amimed, #2-01F30-1), 2 mM L-glutamine (BioConcept Ltd. Amimed, #5-10K00-H) and 1 mM sodium pyruvate (BioConcept Ltd. Amimed, #5-60F00-H), 10 mM HEPES (Gibco #11560496) and D-glucose 1.25g/500 mL medium (Gibco, #A24940-01). To establish H1650 xenografts, cells were harvested and re-suspended in HBSS (Gibco, #14175)/Matrigel (Corning #354234) (1:1 v/v) before injecting 100 μL containing 5×10^6 cells subcutaneously in the flanks of female SCID mice (Taconic, Europe). Tumor growth was monitored regularly post cell inoculation and animals were randomized into treatment groups (n=6) with a mean tumor volume of about 150 mm^3. The ADCs were administered intravenously (i.v.) once at the start of treatment at 30 mg/kg in combination with 7.5 mg/kg docetaxel (Zentiva: 1 ml/20 mg) which was administered i.v. once 24 h after the ADCs. Doses were adjusted to individual mouse body weights. The i.v. dose volume was 10 ml/kg and each ADC was dissolved in 0.9% (w/v) NaCl in water and the docetaxel stock solution was diluted to appropriate concentration with 5% (w/v) sterile glucose solution prior to administration.
Tumor volume data on day 21 and 28 post treatment initiation were analyzed for statistical difference relative to vehicle control group and EGFR-Bcl-xLi (L109A-P1) ADC, using one way ANOVA post hoc Tukey's multiple comparisons test (Indigo Software). Results are presented as mean±SEM.
As a measure of efficacy the %T/C value was calculated on day 21 according to:
(Δtumor volume treated/Δtumor volume control)*100 Tumor regression was calculated according to:
−(Δtumor volume treated/tumor volume treated at start)*100
Where Δtumor volumes represent the mean tumor volume on the evaluation day minus the mean tumor volume at the start of the experiment.

For `CC[C@@]1(O)C(=O)OCc2c1cc1n(c2=O)Cc2cc3c(CN(C)C)c(O)ccc3nc2-1` [Topotecan, topotecan], the GI50 (corl279; Homo sapiens, COR-L279, 120 h) was 0.0152 µM, the “GI Amax corl279” value (corl279) was −95.95 and the GI50 (ncih1436; Homo sapiens, NCI-H1436, 120 h) was 0.515 µM. For the same molecule, the “GI Amax ncih1436” value (ncih1436) was −23.22, the GI50 (ncih146; Homo sapiens, NCI-H146, 120 h) was 0.00304 µM and the “GI Amax ncih146” value (ncih146) was −91.77. The GI50 (ncih211; Homo sapiens, NCI-H211, 120 h) was 0.0125 µM, the “GI Amax ncih211” value (ncih211) was −89.36 and the GI50 (ncih524; Homo sapiens, NCI-H524, 120 h) was 0.00827 µM. For the same molecule, the “GI Amax ncih524” value (ncih524) was −83.85.
In the case of `CC1(C)CCC(CN2CCN(c3ccc(C(=O)NS(=O)(=O)c4ccc(NCC5CCOCC5)c([N+](=O)[O-])c4)c(Oc4cnc5[nH]ccc5c4)c3)CC2)=C(c2ccc(Cl)cc2)C1` [Venetoclax, venetoclax], the GI50 (corl279) is reported as > 10 µM, the “GI Amax corl279” value (corl279) is reported as 98.71 and the GI50 (ncih1436) is reported as 4.92 µM. For the same molecule, the “GI Amax ncih1436” value (ncih1436) was 13, the GI50 (ncih146) was 0.789 µM and the “GI Amax ncih146” value (ncih146) was −16.83. The GI50 (ncih211) was 3.92 µM, the “GI Amax ncih211” value (ncih211) was 30.85 and the GI50 (ncih524) was > 10 µM. The “GI Amax ncih524” value (ncih524) was 105.21.
For `Cc1c(Nc2nc3ccccc3s2)nnc2c1CCCN2c1ccc(-c2cnn(CC34CC5(C)CC(C)(C3)CC(OCCNCCCO)(C5)C4)c2C)c(C(=O)O)n1` [P25, 6-[3-(1,3-benzothiazol-2-ylamino)-4-methyl-6,7-dihydro-5H-pyrido[2,3-c]pyridazin-8-yl]-3-[1-[[3-[2-(3-hydroxypropylamino)ethoxy]-5,7-dimethyl-1-adamantyl]methyl]-5-methyl-pyrazol-4-yl]pyridine-2-carboxylic acid], the IC50 (H1650 cells; experiment n1, read-out: H1650 3D CTG IC50 n1) was 2.8 nM, the IC50 (H1650 cells; experiment n2, read-out: H1650 3D CTG IC50 n2) was 3 nM and the IC50 (H1650 cells; mean of n1 and n2, read-out: H1650 3D CTG IC50 Mean of n1 and n2) was 2.9 nM. For the same molecule, the IC50 (HPB-ALL (T-ALL); mean, read-out: HPB-ALL (T-ALL) IC50 mean) was 4.6 nM, the IC50 (HPB-ALL (T-ALL); n1, read-out: HPB-ALL (T-ALL) IC50 n1) was 4.2 nM and the IC50 (HPB-ALL (T-ALL); n2, read-out: HPB-ALL (T-ALL) IC50 n2) was 5 nM. It also gave an IC50 (ALL-SILL (T-ALL); mean, read-out: ALL-SILL (T-ALL) IC50 mean) of 1.75 nM, an IC50 (ALL-SILL (T-ALL); n1, read-out: ALL-SILL (T-ALL) IC50 n1) of 2.1 nM and an IC50 (ALL-SILL (T-ALL); n2, read-out: ALL-SILL (T-ALL) IC50 n2) of 1.39 nM. The IC50 (LOUCY (T-ALL); mean, read-out: LOUCY (T-ALL) IC50 mean) was 1.03 nM, the IC50 (LOUCY (T-ALL); n1, read-out: LOUCY (T-ALL) IC50 n1) was 0.8 nM and the IC50 (LOUCY (T-ALL); n2, read-out: LOUCY (T-ALL) IC50 n2) was 1.26 nM. The IC50 (SUDHL8 (DLBCL); mean, read-out: SUDHL8 (DLBCL) IC50 mean) was 7.78 nM, the IC50 (SUDHL8 (DLBCL); n1, read-out: SUDHL8 (DLBCL) IC50 n1) was 5.92 nM and the IC50 (SUDHL8 (DLBCL); n2, read-out: SUDHL8 (DLBCL) IC50 n2) was 9.64 nM. It also gave an IC50 (MM1S (MM); mean, read-out: MM1S (MM) IC50 mean) of 74.8 nM, an IC50 (MM1S (MM); n1, read-out: MM1S (MM) IC50 n1) of 56.7 nM and an IC50 (MM1S (MM); n2, read-out: MM1S (MM) IC50 n2) of 92.9 nM.
`CC(=O)O[C@@]12CO[C@@H]1C[C@H](O)[C@@]1(C)C(=O)[C@H](O)C3=C(C)[C@@H](OC(=O)[C@H](O)[C@@H](NC(=O)OC(C)(C)C)c4ccccc4)C[C@@](O)([C@@H](OC(=O)c4ccccc4)[C@H]21)C3(C)C` [docetaxel] was tested, and the “Response on day 21 T/C (%)” value ([1]; day 21) was 51%, the “ΔTumor volume (mm^3) D21” value ([1]; day 21, mean) was 396.59 mm^3 and the “Maximum regression (day)” value ([1]; maximum on D7) was −1. The “Significance On D21 vs Isotype-DANAPA-L109A-P1-ADC group” value ([1]; vs IgG CysMab DANAPA-L109A-P1 ADC + docetaxel, printed with (growth)) was “P < 0.05 (growth)”.

Reference: patent publication US20240269304A1, “BCL-XL INHIBITOR ANTIBODY-DRUG CONJUGATES AND METHODS OF USE THEREOF” (Novartis AG, priority 2020, published 2024)
